# Source: paper PMC9889419 (Pharmacological Reports, 2022)
# pIC50, pKi: −log10 of the molar value. Structures can show the parent of a compound that is named as a salt.
# What was measured:
# [1] = target: T1, CYP3A4 (Homo sapiens, UniProt P08684); assay: Human cytochrome P450 inhibition (human liver microsomes); assay type: in vitro ADME
# T1 construct: The human liver microsomes used were selected from the bank of those commercially available; from tissue; host or cells: human liver microsomes
# T1 sequence (P08684 whole entry): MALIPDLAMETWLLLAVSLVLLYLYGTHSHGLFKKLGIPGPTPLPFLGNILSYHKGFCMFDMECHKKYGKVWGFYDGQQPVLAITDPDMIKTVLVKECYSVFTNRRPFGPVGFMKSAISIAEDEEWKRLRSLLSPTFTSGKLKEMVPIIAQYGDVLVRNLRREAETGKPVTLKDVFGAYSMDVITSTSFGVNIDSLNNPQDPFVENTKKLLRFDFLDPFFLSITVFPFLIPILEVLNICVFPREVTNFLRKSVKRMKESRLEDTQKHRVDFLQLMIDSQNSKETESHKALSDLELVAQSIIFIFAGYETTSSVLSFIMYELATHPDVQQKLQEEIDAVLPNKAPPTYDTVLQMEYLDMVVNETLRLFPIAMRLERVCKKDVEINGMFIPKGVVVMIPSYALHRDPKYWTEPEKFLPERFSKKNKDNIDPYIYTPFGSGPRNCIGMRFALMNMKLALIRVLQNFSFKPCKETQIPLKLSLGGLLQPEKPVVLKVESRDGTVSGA
# Experimental: The selective reactions utilized for each enzyme were as follows: CYP1A2—phenacetin deethylation, CYP2A6—coumarin 7-hydroxylation, CYP2B6—7-ethoxy-4-trifluoromethyl coumarin O-deethylation, CYP2C9—diclofenac 4-hydroxylation, CYP2C19—S-mephenytoin 4-hydroxylation, CYP2D6—bufuralol 1’-hydroxylation, CYP2E1—chlorzoxazone 6-hydroxylation, CYP3A4—testosterone 6β-hydroxylation. For inhibitory evaluation, human liver microsomes and the tested compound (added in methanol as a solvent) were incubated under aerobic conditions with cytochrome P450 isozyme-selective substrates and excess NADPH at 37 °C. Incubations were for time periods over which the reaction in the absence of the compound, were determined to be linear, and proportional to the protein concentration. The human liver microsomes used were selected from the bank of those commercially available to be especially rich in the amount of the cytochrome P450 isozyme under investigation. However, it is important to note that the microsomes contained all the other isozymes in addition, and if reaction/substrate was less than specific, the other isozymes may have contributed to a minor extent to the enzyme activity determined. Following incubation, the reaction was terminated, an internal standard added, the metabolic products extracted and separated by reverse phase HPLC. Each assay was performed in duplicate, and the mean value calculated. The HPLC elutions were monitored by UV absorbance for all CYP reactions except those for CYP2A6, CYP2B6 and CYP2D6 where fluorescence monitoring was employed. Quantification was by comparison with authentic metabolites.
# [2] = target: T2, MT1 (ML1A) (Homo sapiens, UniProt P48039); assay: Radioligand binding; conditions: 100 μM
# T2 construct: purchased Eurofins CEREP
# T2 sequence (P48039 whole entry): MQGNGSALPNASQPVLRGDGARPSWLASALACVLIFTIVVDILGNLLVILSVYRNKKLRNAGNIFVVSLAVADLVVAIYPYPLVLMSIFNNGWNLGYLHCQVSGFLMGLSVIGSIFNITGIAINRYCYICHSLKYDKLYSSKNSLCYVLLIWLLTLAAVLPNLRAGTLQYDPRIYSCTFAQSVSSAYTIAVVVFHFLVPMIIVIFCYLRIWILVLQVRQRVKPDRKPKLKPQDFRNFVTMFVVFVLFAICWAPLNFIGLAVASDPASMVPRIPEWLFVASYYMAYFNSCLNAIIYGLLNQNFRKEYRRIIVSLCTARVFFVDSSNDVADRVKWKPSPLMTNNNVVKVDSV
# [3] = target: T3, 5-HT6 (Homo sapiens, UniProt P50406); assay: Radioligand binding; conditions: 100 μM
# T3 construct: purchased Eurofins CEREP
# T3 sequence (P50406 whole entry): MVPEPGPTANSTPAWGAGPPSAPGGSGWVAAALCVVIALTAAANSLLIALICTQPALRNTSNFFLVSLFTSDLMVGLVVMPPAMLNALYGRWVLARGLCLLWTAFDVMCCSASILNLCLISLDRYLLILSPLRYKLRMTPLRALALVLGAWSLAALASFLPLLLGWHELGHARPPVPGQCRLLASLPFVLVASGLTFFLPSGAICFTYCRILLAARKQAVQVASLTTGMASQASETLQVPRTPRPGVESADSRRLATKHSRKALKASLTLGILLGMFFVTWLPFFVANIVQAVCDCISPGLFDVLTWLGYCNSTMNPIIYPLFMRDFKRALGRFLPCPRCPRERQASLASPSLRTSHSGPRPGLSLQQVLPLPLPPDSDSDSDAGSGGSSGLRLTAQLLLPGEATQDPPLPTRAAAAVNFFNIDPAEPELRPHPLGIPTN
# [4] = target: T4, ETA (Homo sapiens, UniProt P25101); assay: Radioligand binding; conditions: 100 μM
# T4 construct: purchased Eurofins CEREP
# [5] = target: T5, M3 (Homo sapiens, UniProt P20309); assay: Radioligand binding; conditions: 100 μM
# T5 construct: purchased Eurofins CEREP
# T5 sequence (P20309 whole entry): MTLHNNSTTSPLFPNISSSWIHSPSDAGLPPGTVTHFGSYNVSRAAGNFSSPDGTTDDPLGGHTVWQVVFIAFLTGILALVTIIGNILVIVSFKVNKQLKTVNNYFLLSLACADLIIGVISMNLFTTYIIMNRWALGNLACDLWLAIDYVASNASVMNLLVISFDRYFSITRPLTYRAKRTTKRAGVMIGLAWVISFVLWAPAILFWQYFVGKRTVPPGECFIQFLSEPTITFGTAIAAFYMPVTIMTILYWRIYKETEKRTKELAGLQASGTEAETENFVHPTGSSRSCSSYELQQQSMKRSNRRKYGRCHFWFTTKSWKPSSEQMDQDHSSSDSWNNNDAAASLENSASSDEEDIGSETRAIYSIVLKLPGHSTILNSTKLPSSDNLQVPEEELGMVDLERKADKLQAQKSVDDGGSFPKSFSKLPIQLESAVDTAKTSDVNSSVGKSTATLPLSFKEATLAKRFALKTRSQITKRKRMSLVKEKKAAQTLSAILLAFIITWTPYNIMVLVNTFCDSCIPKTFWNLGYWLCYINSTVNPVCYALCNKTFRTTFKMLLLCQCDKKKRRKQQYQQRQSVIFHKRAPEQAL
# [6] = target: T6, IP (PGI2) (Homo sapiens, UniProt P43119); assay: Radioligand binding; conditions: 100 μM
# T6 construct: purchased Eurofins CEREP
# T6 sequence (P43119 whole entry): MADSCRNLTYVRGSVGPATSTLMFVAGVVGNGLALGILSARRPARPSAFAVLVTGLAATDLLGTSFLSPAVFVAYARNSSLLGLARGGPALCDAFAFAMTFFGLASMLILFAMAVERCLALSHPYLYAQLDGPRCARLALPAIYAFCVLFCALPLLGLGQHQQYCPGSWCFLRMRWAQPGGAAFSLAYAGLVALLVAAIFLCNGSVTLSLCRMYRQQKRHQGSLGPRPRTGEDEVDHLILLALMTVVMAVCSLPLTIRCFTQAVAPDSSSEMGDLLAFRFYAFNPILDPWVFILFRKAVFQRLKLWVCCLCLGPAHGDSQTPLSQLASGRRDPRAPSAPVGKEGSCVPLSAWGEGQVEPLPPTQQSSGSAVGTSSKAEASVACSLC
# [7] = target: T7, PPARγ (Homo sapiens, UniProt P37231); assay: Radioligand binding; conditions: 100 μM
# T7 construct: purchased Eurofins CEREP
# [8] = target: T8, CCK1 (CCKA) (Homo sapiens, UniProt P32238); assay: Radioligand binding; conditions: 100 μM
# T8 construct: purchased Eurofins CEREP
# [9] = target: T9, GAL1 (Homo sapiens, UniProt P47211); assay: Radioligand binding; conditions: 100 μM
# T9 construct: purchased Eurofins CEREP
# T9 sequence (P47211 whole entry): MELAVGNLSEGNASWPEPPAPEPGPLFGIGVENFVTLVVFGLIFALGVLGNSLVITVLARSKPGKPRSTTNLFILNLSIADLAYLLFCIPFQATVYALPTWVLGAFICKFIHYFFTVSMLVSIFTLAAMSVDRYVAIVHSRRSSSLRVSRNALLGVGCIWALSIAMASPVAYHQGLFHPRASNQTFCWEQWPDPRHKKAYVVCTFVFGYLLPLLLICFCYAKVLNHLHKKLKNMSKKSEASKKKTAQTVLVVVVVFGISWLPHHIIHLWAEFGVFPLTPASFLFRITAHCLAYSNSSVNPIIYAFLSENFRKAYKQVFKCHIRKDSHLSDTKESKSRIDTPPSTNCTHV
# [10] = target: T10, EP2 (Homo sapiens, UniProt P43116); assay: Radioligand binding; conditions: 100 μM
# T10 construct: purchased Eurofins CEREP
# [11] = test system: sst (non-selective); assay: Radioligand binding; conditions: 100 μM
# [12] = target: T11, GAL2 (Homo sapiens, UniProt O43603); assay: Radioligand binding; conditions: 100 μM
# T11 construct: purchased Eurofins CEREP
# T11 sequence (O43603 whole entry): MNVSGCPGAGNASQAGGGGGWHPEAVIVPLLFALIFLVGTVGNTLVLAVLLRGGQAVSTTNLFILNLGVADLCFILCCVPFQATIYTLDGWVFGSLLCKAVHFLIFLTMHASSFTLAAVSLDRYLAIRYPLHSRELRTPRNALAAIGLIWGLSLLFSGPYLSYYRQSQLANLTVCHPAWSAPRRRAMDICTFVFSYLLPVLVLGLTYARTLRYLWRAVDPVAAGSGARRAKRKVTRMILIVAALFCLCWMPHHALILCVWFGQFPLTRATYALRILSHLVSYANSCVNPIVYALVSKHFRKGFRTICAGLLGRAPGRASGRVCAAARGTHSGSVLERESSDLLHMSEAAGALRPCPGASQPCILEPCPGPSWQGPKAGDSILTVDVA
# [13] = target: T12, MC4 (Homo sapiens, UniProt P32245); assay: Radioligand binding; conditions: 100 μM
# T12 construct: purchased Eurofins CEREP
# [14] = target: T13, BZD (peripheral) (Rattus norvegicus, UniProt P16257); assay: Radioligand binding; conditions: 100 μM
# T13 construct: purchased Eurofins CEREP
# T13 sequence (P16257 whole entry): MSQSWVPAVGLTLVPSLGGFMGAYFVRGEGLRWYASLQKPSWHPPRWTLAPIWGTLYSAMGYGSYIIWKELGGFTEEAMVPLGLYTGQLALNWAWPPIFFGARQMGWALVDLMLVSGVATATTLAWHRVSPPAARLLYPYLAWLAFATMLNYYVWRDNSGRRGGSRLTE
# [15] = test system: PDGF; assay: Radioligand binding; conditions: 100 μM
# [16] = target: T14, A1 (Homo sapiens, UniProt P30542); assay: Radioligand binding; conditions: 100 μM
# T14 construct: purchased Eurofins CEREP
# [17] = target: T15, H1 (Homo sapiens, UniProt P35367); assay: Radioligand binding; conditions: 100 μM
# T15 construct: purchased Eurofins CEREP
# T15 sequence (P35367 whole entry): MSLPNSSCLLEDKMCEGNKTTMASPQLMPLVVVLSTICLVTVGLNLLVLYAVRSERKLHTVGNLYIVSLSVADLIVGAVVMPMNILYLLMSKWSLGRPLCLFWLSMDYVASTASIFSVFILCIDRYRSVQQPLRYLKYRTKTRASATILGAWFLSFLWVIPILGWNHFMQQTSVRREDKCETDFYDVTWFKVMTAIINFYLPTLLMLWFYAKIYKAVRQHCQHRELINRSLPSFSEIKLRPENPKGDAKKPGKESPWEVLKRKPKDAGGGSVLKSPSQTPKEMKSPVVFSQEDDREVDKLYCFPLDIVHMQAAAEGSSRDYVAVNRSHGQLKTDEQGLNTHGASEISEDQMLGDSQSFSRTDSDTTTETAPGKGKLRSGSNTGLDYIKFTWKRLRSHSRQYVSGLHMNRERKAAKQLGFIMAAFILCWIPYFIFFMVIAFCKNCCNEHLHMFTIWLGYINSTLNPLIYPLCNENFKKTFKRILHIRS
# [18] = target: T16, ETB (Homo sapiens, UniProt P24530); assay: Radioligand binding; conditions: 100 μM
# T16 construct: purchased Eurofins CEREP
# [19] = target: T17, CCR1 (Homo sapiens, UniProt P32246); assay: Radioligand binding; conditions: 100 μM
# T17 construct: purchased Eurofins CEREP
# [20] = target: T18, PAC1 (PACAP) (Homo sapiens, UniProt P41586); assay: Radioligand binding; conditions: 100 μM
# T18 construct: purchased Eurofins CEREP
# T18 sequence (P41586 21-468): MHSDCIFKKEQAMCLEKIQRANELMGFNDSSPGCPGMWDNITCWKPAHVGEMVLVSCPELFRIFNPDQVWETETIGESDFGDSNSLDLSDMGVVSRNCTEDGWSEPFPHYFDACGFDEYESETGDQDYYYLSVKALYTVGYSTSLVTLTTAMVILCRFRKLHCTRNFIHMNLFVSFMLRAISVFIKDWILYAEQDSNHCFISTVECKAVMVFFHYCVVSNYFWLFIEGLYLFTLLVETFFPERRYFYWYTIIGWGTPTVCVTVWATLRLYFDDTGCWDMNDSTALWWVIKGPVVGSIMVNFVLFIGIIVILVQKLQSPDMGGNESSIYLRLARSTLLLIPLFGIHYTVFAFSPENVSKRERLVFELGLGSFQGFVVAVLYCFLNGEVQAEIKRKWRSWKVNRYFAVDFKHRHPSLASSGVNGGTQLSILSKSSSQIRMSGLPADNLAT
# [21] = target: T19, μ (MOP) (Homo sapiens, UniProt P35372); assay: Radioligand binding; conditions: 100 μM
# T19 construct: purchased Eurofins CEREP
# [22] = target: T20, Y2 (Homo sapiens, UniProt P49146); assay: Radioligand binding; conditions: 100 μM
# T20 construct: purchased Eurofins CEREP
# T20 sequence (P49146 whole entry): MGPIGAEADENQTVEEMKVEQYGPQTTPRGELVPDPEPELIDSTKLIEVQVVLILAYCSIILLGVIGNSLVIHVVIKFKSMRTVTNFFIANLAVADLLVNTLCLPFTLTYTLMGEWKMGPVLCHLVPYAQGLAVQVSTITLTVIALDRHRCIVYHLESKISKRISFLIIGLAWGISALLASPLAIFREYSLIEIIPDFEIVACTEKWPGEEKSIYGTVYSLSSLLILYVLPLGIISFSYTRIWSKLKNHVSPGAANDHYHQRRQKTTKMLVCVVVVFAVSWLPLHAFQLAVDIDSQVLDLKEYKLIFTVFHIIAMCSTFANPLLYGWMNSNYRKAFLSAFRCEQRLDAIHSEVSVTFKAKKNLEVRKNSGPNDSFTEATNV
# [23] = target: α1 (non-selective); assay: Radioligand binding; parameters: species or system rat
# Experimental: Radioligand binding. Radioligand binding assays were performed at Eurofins CEREP (France). The results are expressed as a percent of control specific binding (measured specific binding*100/control specific binding) and as a percent inhibition of control specific binding (100-(measured specific binding*100)/control specific binding) obtained in the presence of the test compounds. The IC50 values (concentration causing a half-maximal inhibition of control specific binding) and Hill coefficients (nH) were determined by non-linear regression analysis of the competition curves generated with mean replicate values using Hill equation curve fitting (Y = D + [A-D]/[1 + (C/C50)^nH], where Y = specific binding, A = left asymptote of the curve, D = right asymptote of the curve, C = compound concentration, C50 = IC50, and nH = slope factor). This analysis was performed using software developed at Cerep (Hill software) and validated by comparison with data generated by the commercial software SigmaPlot® 4.0 for Windows® (© 1997 by SPSS Inc.). The inhibition constants (Ki) were calculated using the Cheng Prusoff equation (Ki = IC50/[1 + L/KD], where L = concentration of radioligand in the assay, and KD = affinity of the radioligand for the receptor). A scatchard plot is used to determine the Kd.
# [24] = target: T21, hERG (Homo sapiens, UniProt Q12809); assay: Radioligand binding; conditions: read-out: % of control specific binding
# T21 construct: purchased Eurofins CEREP
# Experimental: Radioligand binding. Radioligand binding assays were performed at Eurofins CEREP (France). The results are expressed as a percent of control specific binding (measured specific binding*100/control specific binding) and as a percent inhibition of control specific binding (100-(measured specific binding*100)/control specific binding) obtained in the presence of the test compounds. The IC50 values (concentration causing a half-maximal inhibition of control specific binding) and Hill coefficients (nH) were determined by non-linear regression analysis of the competition curves generated with mean replicate values using Hill equation curve fitting (Y = D + [A-D]/[1 + (C/C50)^nH], where Y = specific binding, A = left asymptote of the curve, D = right asymptote of the curve, C = compound concentration, C50 = IC50, and nH = slope factor). […] The inhibition constants (Ki) were calculated using the Cheng Prusoff equation (Ki = IC50/[1 + L/KD], where L = concentration of radioligand in the assay, and KD = affinity of the radioligand for the receptor).
# [25] = target: T22, hNav1.1 sodium channel (Homo sapiens, UniProt P35498); assay: Nav channel electrophysiology (IonWorks Quattro); assay type: cell-based
# T22 construct: host or cells: CHO cells
# [26] = target: T23, Sigma 1 (Homo sapiens, UniProt Q99720); assay: Radioligand binding
# T23 construct: purchased Eurofins CEREP
# T23 sequence (Q99720 whole entry): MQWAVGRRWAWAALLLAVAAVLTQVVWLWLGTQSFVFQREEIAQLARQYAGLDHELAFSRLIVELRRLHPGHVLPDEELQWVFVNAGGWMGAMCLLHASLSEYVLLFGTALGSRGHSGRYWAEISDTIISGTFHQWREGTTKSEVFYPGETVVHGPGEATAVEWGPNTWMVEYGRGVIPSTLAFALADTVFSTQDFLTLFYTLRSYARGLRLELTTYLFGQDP
# [27] = target: T24, Sigma 2 (Homo sapiens, UniProt Q5BJF2); assay: Radioligand binding
# T24 construct: purchased Eurofins CEREP
# T24 sequence (Q5BJF2 whole entry): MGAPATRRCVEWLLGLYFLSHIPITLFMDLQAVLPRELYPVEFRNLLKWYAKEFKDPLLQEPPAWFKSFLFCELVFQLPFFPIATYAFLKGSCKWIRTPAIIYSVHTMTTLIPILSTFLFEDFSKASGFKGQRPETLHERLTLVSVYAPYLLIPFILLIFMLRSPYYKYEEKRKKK
# [28] = read-out: % inhibition of specific control binding
# [29] = read-out: % of control specific binding
smiles,measurement,setting,value
"CCC(CO)NCCOc1c(C)cccc1Cl (centres unmarked) [Compound 4, R,S-2-((2-(2-chloro-6-methylphenoxy)ethyl)amino)butan-1-ol]",Inhibition type,[1],Weak inhibition
same,% inhibition of 500 µM concentration,"[1]; 500 µM, substrate at 200.0 µM",52 (substrate at 200.0 µM) %
same,% of control specific binding,[2],55.1%
same,% of control specific binding,[3],101.6%
same,% of control specific binding,[4],130.9%
same,% of control specific binding,[5],63.5%
same,% of control specific binding,[6],97.2%
same,% of control specific binding,[7],92.3%
same,% of control specific binding,[8],99.8%
same,% of control specific binding,[9],123.5%
same,% of control specific binding,[10],75.4%
same,% of control specific binding,[11],75.5%
same,% of control specific binding,[12],111.9%
same,% of control specific binding,[13],92.0%
same,% of control specific binding,[14],75.1%
same,% of control specific binding,[15],127.9%
same,% of control specific binding,[16],124.5%
same,% of control specific binding,[17],58.9%
same,% of control specific binding,[18],134.4%
same,% of control specific binding,[19],100.7%
same,% of control specific binding,[20],107.7%
same,% of control specific binding,[21],50.1%
same,% of control specific binding,[22],126.5%
"CCC(CO)NCCOc1c(C)cccc1Cl (centres unmarked) [KM-408, R,S-2-((2-(2-chloro-6-methylphenoxy)ethyl)amino)butan-1-ol hydrochloride]",pIC50,[23],4.92
same,pKi,[23],5.48
same,% of control specific binding,[23]; 0.01 μM,102.4%
same,% of control specific binding,[23]; 0.1 μM,97.3%
same,% of control specific binding,[23]; 1 μM,90.0%
same,% of control specific binding,[23]; 10 μM,55.9%
same,% of control specific binding,[23]; 100 μM,12.8%
same,activity at 100 µM,[24],26.1%
same,pIC50,[25]; 10 Hz,4.76
same,pIC50,[25]; Inactivated state,> 5.00
same,pIC50,[25]; Tonic block,4.19
same,inhibition at 10 µM,[26]; [28],95%
same,remaining activity at 10 µM,[26]; [29],95%
same,inhibition at 10 µM,[27]; [28],94.8%
same,remaining activity at 10 µM,[27]; [29],94.8%
